Reference: patent US20240181068A1, “SELECTIVE NEUTRAL PH INHIBITOR OF CATHEPSIN B” (The Regents of the University of California, priority 2021, published 2024)
pIC50: −log10 of the molar value.

Legend:
Format in all cases: biochemical
cathepsin C = target: T1, cathepsin C (Homo sapiens, UniProt P53634); assay: Specificity of inhibitors: cathepsin C (Gly-Arg-AMC substrate)
T1 construct: purchased R&D Systems 1071-CY-010
Protocol: (§1) Specificity of inhibitors for other cysteine cathepsin proteases. The effects of Z-Arg-Lys-AOMK and Z-Glu-Lys-AOMK on cathepsin V, L, K, S, X, H and C activities were assessed. IC50 values were calculated at pH 4.6 and pH 7.2 conditions, consisting of 40 mM citrate phosphate, 1 mM EDTA, 100 mM NaCl, and 5 mM DTT. The inhibitor concentrations ranged from 16.38 μM to 256 nM with 2-fold serial dilutions. […] Cathepsin V (0.04 ng/μL), cathepsin L (0.03 ng/μL), cathepsin K (0.10 ng/μL), cathepsin S (0.20 ng/uL) were assayed with 40 μM Z-Phe-Arg-AMC. Cathepsin X (0.20 ng/uL), cathepsin C (0.51 ng/uL) and cathepsin H (0.1 ng/μL) were assayed with 40 μM of MCA-Arg-Pro-Pro-Gly-Phe-Ser-Ala-Phe-Lys(Dnp)OH (SEQ ID NO: 2), Gly-Arg-AMC, and Arg-AMC, respectively. Activation of pro-cathepsin H to cathepsin H was conducted by incubation of cathepsin H (4.4 ng/μL) with cathepsin L (1.1 ng/μL) at RT for 2 hrs in activation buffer (20 mM citrate phosphate pH 6.0, 100 mM NaCl, and 5 mM DTT). Cathepsin C (13.78 ng/μL) was activated by incubation with cathepsin L (3.4 ng/μL) at RT for one hr in activation buffer (20 mM citrate phosphate, pH 6.0, 100 mM NaCl, 5 mM DTT). […] For all assays containing peptide-AMC substrates the fluorescent microplate reader settings were the same as outlined above for cathepsin B. For the cathepsin X assay, the plate reader was set to excitation 320 nm, emission 400 nm, gain 105, top optics and read height 1 mm. To convert RFU/s to picomol/min, 10 μM to 0.005 μM (2-fold serial dilution) of MCA-Arg-Pro-Pro-Gly-Phe-Ser-Ala-Phe-Lys(Dnp)OH (SEQ ID NO: 2) was fully hydrolyzed with excess cathepsin X and a standard curve was generated using the total fluorescence values calculated at each concentration.

[1] = target: T2, cathepsin B in SHSY5Y human neuroblastoma cell homogenate (Homo sapiens, UniProt P07858); assay: Cathepsin B activity in neuroblastoma cell homogenates in presence of inhibitors; conditions: inhibitor 1 μM, Z-Arg-Arg-AMC substrate, pH 5.5
T2 construct: endogenous in cells; host or cells: SH-SY5Y human neuroblastoma cells
Protocol: Cathepsin B in human neuroblastoma cells treated with inhibitors. Neuroblastoma cells (human SHSY5Y) were grown in media consisting of 50% MEMalpha, 50% F12-K, 10% heat-inactivated FBS at 37° C. in an atmosphere of 95% air and 5% CO2. Firstly, cell homogenates were prepared by collection of cells in 0.32 M sucrose and freeze-thawing. Secondly, cells were incubated with Z-Arg-Lys-AOMK or CA-074Me for 6 hours at 37° C., and washed 3 times in phosphate-buffered saline and homogenates were prepared in 0.32 M sucrose with freeze-thawing. CA-074Me is a methyl ester form of the active CA-074 selective inhibitor of cathepsin B (70); CA-074Me penetrates the cell and is converted by intracellular esterases to CA-074.
Cathepsin B activity in the homogenates were monitored with Z-Arg-Arg-AMC substrate (60 μM) with buffer conditions of 40 mM citrate-phosphate, pH 5.5, 5 mM DTT, 1 mM EDTA, 100 mM NaCl, and 1.2% DMSO, followed by incubation at 37° C. for 30 minutes and reading of AMC fluorescence. CA-074-senstive activity was monitored to indicate cathepsin B activity, since CA-074 is a selective inhibitor of this enzyme (70). Protein content was measured in homogenates with the DC protein assay kit. Cathepsin B specific activity was calculated as nmol AMC/μg/min, and reported as the mean±SD (with analyses for statistical significance, p<0.05 by student's t-test).

cathepsin K = target: T3, cathepsin K (Homo sapiens, UniProt P43235); assay: Specificity of inhibitors: cathepsin K (Z-Phe-Arg-AMC substrate)
T3 construct: purchased Abcam ab157067
T3 sequence (P43235 115-329): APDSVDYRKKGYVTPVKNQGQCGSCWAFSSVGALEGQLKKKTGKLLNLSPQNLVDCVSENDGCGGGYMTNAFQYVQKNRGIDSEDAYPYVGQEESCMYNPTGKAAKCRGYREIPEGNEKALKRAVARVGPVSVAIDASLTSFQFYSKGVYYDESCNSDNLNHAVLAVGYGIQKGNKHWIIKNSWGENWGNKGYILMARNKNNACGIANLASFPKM
Protocol: as §1

T1 sequence (P53634 25-134 limits assumed): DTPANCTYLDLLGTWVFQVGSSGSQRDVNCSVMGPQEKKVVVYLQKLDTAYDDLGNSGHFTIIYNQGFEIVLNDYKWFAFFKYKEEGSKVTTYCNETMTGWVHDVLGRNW
T1 sequence (P53634 231-394 limits assumed): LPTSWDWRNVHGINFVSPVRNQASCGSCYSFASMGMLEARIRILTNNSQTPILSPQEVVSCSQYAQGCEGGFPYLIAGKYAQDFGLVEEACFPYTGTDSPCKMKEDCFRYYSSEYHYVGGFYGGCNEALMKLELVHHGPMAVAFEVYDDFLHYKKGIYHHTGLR
T1 sequence (P53634 395-463 limits assumed): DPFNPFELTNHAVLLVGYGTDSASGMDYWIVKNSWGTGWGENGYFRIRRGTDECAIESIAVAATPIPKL

## Cc1cccc(C)c1C(=O)OCC(=O)C(CCCCN)NC(=O)C(CCCNC(=N)N)NC(=O)OCc1ccccc1 (stereo not drawn) [Z-Arg-Lys-AOMK]
Cathepsin C; cathepsin C, pH 4.6
  pIC50: < 4.80
Cathepsin C; cathepsin C, pH 4.6, 16,000 nM inhibitor
  inhibition at 16 µM: 6%
Cathepsin C; cathepsin C, pH 7.2
  pIC50: 6.07
Cathepsin C; pH 4.6, inhibitor at 16 μM
  inhibition of cathepsin C: minimal inhibition
Cathepsin C; pH 7.2, from IC50
  fold more potent for cathepsin B than cathepsin C: 43 fold
[1]
  inhibition of proteolytic (cathepsin B) activity in cell lysate: completely inhibited
Cathepsin K; cathepsin K, pH 4.6
  pIC50: < 4.80
Cathepsin K; cathepsin K, pH 7.2
  pIC50: < 4.80
Cathepsin K; cathepsin K, pH 7.2, 16,000 nM inhibitor
  inhibition at 16 µM: 31%
Cathepsin K; pH 4.6, inhibitor at 16 μM
  inhibition of cathepsin K: no inhibition
Cathepsin K; pH 7.2, inhibitor at 16 μM
  inhibition of cathepsin K: minimally inhibited
